Experimental data reported in patent US4346076A, “Bis-tetrazoylmethyl substituted cephalosporin antibiotics” (Eli Lilly and Company, priority 1980, dated 1982).
Values after ≈ are worked out from the molar mass of the structure shown. Like-named read-outs stand apart in the source and are kept apart here.

Tests used:
Assay in all cases: in vitro antibacterial activity, agar dilution
Assay type in all cases: cell-based
[1] = test system: Streptococcus Group D; settings: read-out: Minimum Inhibitory Concentration
From the text: (§1) The bis-tetrazol-thiomethyl substituted cephalosporins of this invention are broad spectrum antibiotics which inhibit the growth of both gram positive and gram negative microorganisms which are pathogenic to man and animals. […] The following Table 2 lists the minimum inhibitory concentrations of representative compounds of the invention.
(§2) The data in TABLE 2 were obtained in the agar dilution test method using Mueller-Hinton agar containing two percent Supplement C (Difco). Serial two-fold dilutions were run with the highest concentration on test at 128 mcg/ml.

[2] = test system: Streptococcus pneumoniae; settings: strain PARK, read-out: Minimum Inhibitory Concentration
From the text: as §1, §2

[3] = test system: Proteus inconstans; settings: Providencia alcalifaciens; strain PR33; read-out: Minimum Inhibitory Concentration
From the text: as §1, §2

[4] = test system: Proteus rettgeri; settings: Providencia rettgeri, read-out: Minimum Inhibitory Concentration
From the text: as §1, §2

[5] = test system: Haemophilus influenzae; settings: for MIC: Haemophilus influenzae, read-out: Minimum Inhibitory Concentration
From the text: as §1, §2

[6] = test system: Shigella sonnei; settings: strain N9, read-out: Minimum Inhibitory Concentration
From the text: as §1, §2

[7] = test system: Enterobacter aerogenes; settings: for MIC: Klebsiella aerogenes, read-out: Minimum Inhibitory Concentration
From the text: as §1, §2

[8] = test system: Proteus morganii; settings: Morganella morganii, read-out: Minimum Inhibitory Concentration
From the text: as §1, §2

[9] = test system: Streptococcus Group A; settings: strain C203; read-out: Minimum Inhibitory Concentration
From the text: as §1, §2

[10] = test system: Escherichia coli
From the text: as §1, §2

[11] = test system: Enterobacter cloacae
From the text: as §1, §2

[12] = test system: Salmonella sp.
From the text: as §1, §2

[13] = test system: Staphylococcus aureus
From the text: as §1, §2

[14] = test system: Pseudomonas aeruginosa
From the text: as §1, §2

[15] = test system: Klebsiella sp.
From the text: as §1, §2

[16] = test system: Serratia marcescens
From the text: as §1, §2

[17] = test system: Bordetella bronchoseptica; settings: strain 16, read-out: Minimum Inhibitory Concentration
From the text: as §1, §2

[18] = test system: Citrobacter freundii; settings: strain CF17, read-out: Minimum Inhibitory Concentration
From the text: as §1, §2

[19] = test system: Staphylococcus epidermidis
From the text: as §1, §2

[20] = strain EC14, read-out: Minimum Inhibitory Concentration
[21] = strain N10, read-out: Minimum Inhibitory Concentration
[22] = strain TEM, read-out: Minimum Inhibitory Concentration
[23] = strain 265A, read-out: Minimum Inhibitory Concentration
[24] = strain EB5, read-out: Minimum Inhibitory Concentration
[25] = strain 1335, read-out: Minimum Inhibitory Concentration
[26] = strain X514, read-out: Minimum Inhibitory Concentration
[27] = read-out: Minimum Inhibitory Concentration
[28] = strain V41, read-out: Minimum Inhibitory Concentration
[29] = strain X1.1, read-out: Minimum Inhibitory Concentration
[30] = strain X400, read-out: Minimum Inhibitory Concentration
[31] = strain Ps18, read-out: Minimum Inhibitory Concentration
[32] = strain X239, read-out: Minimum Inhibitory Concentration
[33] = strain X528, read-out: Minimum Inhibitory Concentration
[34] = strain KAE, read-out: Minimum Inhibitory Concentration
[35] = strain X26, read-out: Minimum Inhibitory Concentration
[36] = strain SE3, read-out: Minimum Inhibitory Concentration
[37] = strain X93, read-out: Minimum Inhibitory Concentration
[38] = strain EPI1, read-out: Minimum Inhibitory Concentration
[39] = strain EPI2, read-out: Minimum Inhibitory Concentration

| Structure (SMILES) | MIC ([1]; strain 9960) | MIC ([1]; strain X66) | MIC [2] | MIC [3] | MIC ([4]; strain C24) | MIC ([4]; strain PR7) | MIC [6] | MIC ([7]; strain EB17) | MIC [9] | MIC [10, 20] | MIC [10, 21] | MIC [11, 23] | MIC [11, 24] | MIC [12, 25] | MIC [12, 26] | MIC [13, 27] | MIC [13, 28] | MIC [13, 29] | MIC [13, 30] | MIC [14, 31] | further results |
| --- | --- | --- | --- | --- | --- | --- | --- | --- | --- | --- | --- | --- | --- | --- | --- | --- | --- | --- | --- | --- | --- |
| CCN1CCN(C(=O)N[C@@H](C(=O)N[C@@H]2C(=O)N3C(C(=O)O)=C(CSc4nnnn4Cc4nnn[nH]4)CS[C@H]23)c2ccc(O)cc2)C(=O)C1=O [D, 7-[α-(4-Ethylpiperazin-2,3-dione-1-ylcarbonylamino)-α-(4-hydroxyphenyl)acetamido]-3-[1-(1H-tetrazole-5-ylmethyl)-1H-tetrazole-5-ylthiomethyl]-3-cephem-4-carboxylic acid] | 64 µg/mL (≈ 89.7 µM) | 128 µg/mL (≈ 179 µM) | 0.25 µg/mL (≈ 0.35 µM) | 2 µg/mL (≈ 2.8 µM) | 8 µg/mL (≈ 11.2 µM) | 4 µg/mL (≈ 5.6 µM) | 0.25 µg/mL (≈ 0.35 µM) | 0.5 µg/mL (≈ 0.701 µM) | 0.5 µg/mL (≈ 0.701 µM) | 0.125 µg/mL (≈ 0.175 µM) | 2 µg/mL (≈ 2.8 µM) | 128 µg/mL (≈ 179 µM) | 2 µg/mL (≈ 2.8 µM) | 4 µg/mL (≈ 5.6 µM) | 2 µg/mL (≈ 2.8 µM) | 32 µg/mL (≈ 44.8 µM) | 16 µg/mL (≈ 22.4 µM) | 4 µg/mL (≈ 5.6 µM) | > 128 µg/mL | 8 µg/mL (≈ 11.2 µM) | MIC ([5]; strain 251, resistant strain): 0.015 µg/mL (≈ 0.021 µM); MIC ([5]; strain Brun, sensitive strain): 0.015 µg/mL (≈ 0.021 µM); MIC ([7]; strain C32): 2 µg/mL (≈ 2.8 µM); MIC ([7]; strain X68): 0.25 µg/mL (≈ 0.35 µM); MIC ([8]; strain PR15): 1 µg/mL (≈ 1.4 µM); MIC [10, 22]: 16 µg/mL (≈ 22.4 µM); MIC [14, 32]: 4 µg/mL (≈ 5.6 µM); MIC [14, 33]: 8 µg/mL (≈ 11.2 µM); MIC [15, 34]: > 128 µg/mL; MIC [15, 35]: 1 µg/mL (≈ 1.4 µM); MIC [16, 36]: 4 µg/mL (≈ 5.6 µM); MIC [16, 37]: 1 µg/mL (≈ 1.4 µM); MIC [17]: 32 µg/mL (≈ 44.8 µM); MIC [18]: 32 µg/mL (≈ 44.8 µM); MIC [19, 38]: 8 µg/mL (≈ 11.2 µM); MIC [19, 39]: 32 µg/mL (≈ 44.8 µM) |
| Cn1nnnc1Cn1nnnc1SCC1=C(C(=O)O)N2C(=O)[C@@H](NC(=O)Cc3cccs3)[C@H]2SC1 [B] | 64 µg/mL (≈ 120 µM) | 128 µg/mL (≈ 239 µM) | 2 µg/mL (≈ 3.74 µM) | 64 µg/mL (≈ 120 µM) | 8 µg/mL (≈ 15 µM) | 4 µg/mL (≈ 7.48 µM) | 4 µg/mL (≈ 7.48 µM) | 16 µg/mL (≈ 29.9 µM) | 1 µg/mL (≈ 1.87 µM) | 2 µg/mL (≈ 3.74 µM) | 4 µg/mL (≈ 7.48 µM) | > 128 µg/mL | > 128 µg/mL | 1 µg/mL (≈ 1.87 µM) | 0.5 µg/mL (≈ 0.935 µM) | 4 µg/mL (≈ 7.48 µM) | 2 µg/mL (≈ 3.74 µM) | 0.5 µg/mL (≈ 0.935 µM) | 32 µg/mL (≈ 59.9 µM) | > 128 µg/mL | MIC ([5]; strain 76, resistant strain): 0.5 µg/mL (≈ 0.935 µM); MIC ([5]; strain C.L., sensitive strain): 1 µg/mL (≈ 1.87 µM); MIC ([7]; strain C32): 32 µg/mL (≈ 59.9 µM); MIC ([7]; strain X68): 0.5 µg/mL (≈ 0.935 µM); MIC ([8]; strain PR15): 64 µg/mL (≈ 120 µM); MIC [10, 22]: 8 µg/mL (≈ 15 µM); MIC [14, 32]: > 128 µg/mL; MIC [14, 33]: > 128 µg/mL; MIC [15, 34]: > 128 µg/mL; MIC [15, 35]: 0.5 µg/mL (≈ 0.935 µM); MIC [16, 36]: > 128 µg/mL; MIC [16, 37]: > 128 µg/mL; MIC [17]: 8 µg/mL (≈ 15 µM); MIC [18]: > 128 µg/mL; MIC [19, 38]: 4 µg/mL (≈ 7.48 µM); MIC [19, 39]: 4 µg/mL (≈ 7.48 µM) |
| CO/N=C(\C(=O)N[C@@H]1C(=O)N2C(C(=O)O)=C(CSc3nnnn3Cc3nnnn3C)CS[C@H]12)c1csc(N)n1 [F] | 16 µg/mL (≈ 27 µM) | > 128 µg/mL | 0.015 µg/mL (≈ 0.0253 µM) | 0.5 µg/mL (≈ 0.842 µM) | 0.25 µg/mL (≈ 0.421 µM) | 0.03 µg/mL (≈ 0.0505 µM) | 0.125 µg/mL (≈ 0.211 µM) | 0.25 µg/mL (≈ 0.421 µM) | 0.03 µg/mL (≈ 0.0505 µM) | 0.06 µg/mL (≈ 0.101 µM) | 0.25 µg/mL (≈ 0.421 µM) | 32 µg/mL (≈ 53.9 µM) | 1 µg/mL (≈ 1.68 µM) | 0.5 µg/mL (≈ 0.842 µM) | 0.25 µg/mL (≈ 0.421 µM) | 8 µg/mL (≈ 13.5 µM) | 4 µg/mL (≈ 6.74 µM) | 2 µg/mL (≈ 3.37 µM) | > 128 µg/mL | 32 µg/mL (≈ 53.9 µM) | MIC [5]: 0.125 µg/mL (≈ 0.211 µM); Minimum Inhibitory Concentration ([5]; strain 251, resistant strain): .125 µg/mL; MIC [7]: 0.125 µg/mL (≈ 0.211 µM); Minimum Inhibitory Concentration ([7]; strain C32): .125 µg/mL; MIC [8]: 0.125 µg/mL (≈ 0.211 µM); MIC [10, 27]: 0.125 µg/mL (≈ 0.211 µM); MIC [14, 32]: 32 µg/mL (≈ 53.9 µM); MIC [14, 33]: 32 µg/mL (≈ 53.9 µM); MIC [15, 34]: 4 µg/mL (≈ 6.74 µM); MIC [15, 35]: 0.06 µg/mL (≈ 0.101 µM); MIC [16, 27]: 0.125 µg/mL (≈ 0.211 µM); MIC [16, 36]: 0.5 µg/mL (≈ 0.842 µM); MIC [17]: 128 µg/mL (≈ 216 µM); MIC [18]: 16 µg/mL (≈ 27 µM); MIC [19, 38]: 8 µg/mL (≈ 13.5 µM); MIC [19, 39]: 32 µg/mL (≈ 53.9 µM) |
